# Experimental data as given in ChEMBL document CHEMBL1201862, “PubChem BioAssay data set” (2004).
# Calls of active or inactive are those of the source. Rule as the data show it, for most assays here: actives have a measured EC50 and inactives only a lower limit.
# Columns and labels:
# [1] = target: Cytochrome P450 3A4 (Homo sapiens, UniProt P08684);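 also: CYP3A4 tested as one member of a cytochrome P450 panel screen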
# [2] = inhibitors of firefly luciferase expression or activity, dose response, H4 neuroglioma cells, luminescence (AID 1990); assay type: functional, cell-based
# [3] = Luminescence Cell-Based Dose Response HTS to Identify Inhibitors of 5'UTR Stem-Loop Driven Prion Protein mRNA Translation in H4 Neuroglioblastoma Cells. [Related pubchem assays: 1827 (Project Summary), 1813 (Primary HTS)]; assay type: functional
# [4] = inhibitors of SNCA 5'UTR-driven reporter translation, confirmation, H4 neuroglioma cells, luminescence (AID 1988); assay type: functional, cell-based
# [5] = target: Cytochrome P450 2D6 (Homo sapiens, UniProt P10635);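 also: CYP2D6 member of a cytochrome P450 panel assay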
# [6] = tested on: Streptococcus sp. 'group A'; assay: growth inhibition of control SK(-) GAS strain, dose response, counter-screen for streptokinase expression inhibitor project, luminescence, kanamycin, BacTiterGlo, confirmation (AID 1900); assay type: functional, organism-based
# [7] = tested on: Streptococcus; assay: Group A Streptococcus viability loss, dose response, counter-screen for streptokinase expression inhibitor project, luminescence, BacTiterGlo (AID 1915); assay type: functional, organism-based;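 also: potency for reduction of bacterial viability or growth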
# Sequence of Cytochrome P450 3A4 (P08684 whole entry): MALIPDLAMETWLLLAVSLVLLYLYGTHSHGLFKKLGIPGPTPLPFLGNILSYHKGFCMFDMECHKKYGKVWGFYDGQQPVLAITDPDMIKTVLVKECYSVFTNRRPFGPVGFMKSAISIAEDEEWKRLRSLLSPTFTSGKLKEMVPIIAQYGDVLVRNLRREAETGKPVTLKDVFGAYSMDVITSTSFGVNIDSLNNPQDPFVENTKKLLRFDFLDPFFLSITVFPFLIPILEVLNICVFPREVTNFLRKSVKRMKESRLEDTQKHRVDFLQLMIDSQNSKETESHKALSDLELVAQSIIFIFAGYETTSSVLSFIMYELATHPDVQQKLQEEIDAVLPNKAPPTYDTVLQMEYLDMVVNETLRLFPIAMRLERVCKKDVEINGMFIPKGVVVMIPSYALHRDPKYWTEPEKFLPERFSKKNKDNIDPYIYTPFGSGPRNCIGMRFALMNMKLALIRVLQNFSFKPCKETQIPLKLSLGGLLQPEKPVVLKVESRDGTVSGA
# Sequence of Cytochrome P450 2D6 (P10635 whole entry): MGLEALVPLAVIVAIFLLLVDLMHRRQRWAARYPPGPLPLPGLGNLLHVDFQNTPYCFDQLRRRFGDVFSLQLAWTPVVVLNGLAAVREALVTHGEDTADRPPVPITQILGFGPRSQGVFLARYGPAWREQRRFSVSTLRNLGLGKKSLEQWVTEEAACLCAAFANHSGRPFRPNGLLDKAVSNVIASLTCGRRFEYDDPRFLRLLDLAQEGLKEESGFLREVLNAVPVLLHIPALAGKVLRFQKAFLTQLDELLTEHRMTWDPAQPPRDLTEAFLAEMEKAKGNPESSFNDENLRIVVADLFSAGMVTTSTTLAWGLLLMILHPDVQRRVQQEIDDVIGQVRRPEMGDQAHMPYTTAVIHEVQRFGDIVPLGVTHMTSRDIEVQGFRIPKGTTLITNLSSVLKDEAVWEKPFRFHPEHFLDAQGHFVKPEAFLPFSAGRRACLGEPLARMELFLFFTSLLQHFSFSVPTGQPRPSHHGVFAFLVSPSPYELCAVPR
Compound,AC50 [1],EC50 [2],EC50 [3],EC50 [4],further results
SC1=NC2=C(C(c3ccc(Br)cc3)N1)N1CCC2CC1 (configuration not stated),1.58 µM (inconclusive),–,–,–,–
CCn1c(S)nnc1CC(=O)Nc1ccc(C)cc1,–,> 120 µM (not active),> 120 µM (not active),> 120 µM (not active),–
CCOC(=O)CSc1nnc(CSc2nc3sc4c(c3c(=O)[nH]2)CCCC4)n1-c1ccccc1,1 µM (inconclusive),–,–,–,–
COc1cccc(N2C(=O)C(CC(=O)Nc3ccccc3)N(C3CCCCC3)C2=O)c1 (configuration not stated),–,–,–,–,AC50 [5]: 17.8 µM (inconclusive)
O=c1c(-c2cccs2)nc2cnc(Oc3cccc(Cl)c3)nc2n1C[C@H]1CCCO1,10 µM (inconclusive),–,–,–,–
CC(=O)N1CCC[C@@]2(CCN(Cc3ccc(C#N)cc3)C2)C1,–,–,–,–,AC50 [5]: 12.6 µM (inconclusive)
CCOc1cc(C2NC(=O)NC(c3ccccc3)=C2C(C)=O)ccc1OCC(N)=O (configuration not stated),20 µM (inconclusive),–,–,–,–
CCOC(=O)c1cnc2c(OC)cccc2c1N1CCN(c2ccccn2)CC1,–,15.6 µM (active),53.9 µM (active),11.5 µM (active),–
COCCNc1ncnc2ccc(-c3c(C)noc3C)cc12,31.6 µM (inconclusive),–,–,–,–
C[C@@]12C(=O)N(Cc3ccccc3)CC(=O)N1[C@H](/C=C/c1ccccc1)[C@@H]1C(=O)N(c3ccccc3)C(=O)[C@@H]12,–,25.8 µM (active),> 120 µM (not active),14.9 µM (active),–
COc1ccc(-c2cc(C)no2)cc1S(=O)(=O)N1CCOc2ccccc21,–,> 120 µM (not active),83.5 µM (active),31.4 µM (active),–
COc1cccc(-c2nc(NC3CCNCC3)c3ccccc3n2)c1,25.1 µM (inconclusive),–,–,–,–
COc1ccc([N+](=O)[O-])cc1N=C(S)NC(NC(=O)C(c1ccccc1)c1ccccc1)C(Cl)(Cl)Cl (configuration not stated),–,–,–,–,EC50 [6]: 14.4 µM (active); EC50 [7]: > 150 µM (not active)
COc1ccc(NC(=O)N2CC[C@@]3(CCCN(C(=O)c4cccn4C)C3)C2)cc1,2 µM (inconclusive),–,–,–,–
O=C(c1ccncc1)N1CCC2(CCN(Cc3nccs3)CC2)CC1,–,–,–,–,AC50 [5]: 15.8 µM (inconclusive)
CCc1ccc(CNC(=O)C2CCN(S(=O)(=O)N3CC(C)CC(C)C3)CC2)cc1 (configuration not stated),–,> 120 µM (not active),> 120 µM (not active),93.3 µM (active),–
COc1ccc(CCNS(=O)(=O)c2cccc3cccnc23)cc1OC,–,> 120 µM (not active),> 120 µM (not active),> 120 µM (not active),–
CCCC[C@@H]1C[C@H]1C(NC(=O)Cc1ccccc1)c1ccc(-c2ccccc2)cc1 (some centres not stated),12.6 µM (inconclusive),–,–,–,–
CC(=O)NCCNc1ncncc1-c1ccccc1CN(C)C,12.6 µM (inconclusive),–,–,–,AC50 [5]: 39.8 µM (inconclusive)
O=C(C1CCCN(S(=O)(=O)c2ccc(Br)cc2)C1)N1CCN(Cc2ccccc2)CC1 (configuration not stated),–,15.5 µM (active),> 120 µM (not active),22.7 µM (active),–
CCCc1nc2oc3c(NCCCN(C)C)ncnc3c2c2c1CCCC2,–,12.5 µM (active),> 120 µM (not active),8.73 µM (active),–
CCC(C)(C)n1nnnc1C(c1ccc(C)cc1)N1CCC(C)CC1 (configuration not stated),–,–,–,–,AC50 [5]: 17.8 µM (inconclusive)
COC(=O)C1N2C(=O)[C@@H](NC(=O)COc3ccccc3)[C@H]2SC1(C)C (some centres not stated),–,–,–,–,EC50 [6]: 0.535 µM (active); EC50 [7]: 0.889 µM (active)
COc1ccc(O[C@H]2C=C[C@@H](c3ccccc3)O[C@H]2COC(=O)N2CCCCC2)cc1,–,–,–,–,AC50 [5]: 3.98 µM (inconclusive)
CCOc1ccccc1NS(=O)(=O)c1ccc(Br)s1,–,> 120 µM (not active),25.2 µM (active),> 120 µM (not active),–
CC(=O)Nc1ccc(S(=O)(=O)N(Cc2cccnc2)Cc2cc3ccc(C)cc3nc2O)cc1,–,> 120 µM (not active),> 120 µM (not active),> 120 µM (not active),–
Cc1cccc(OCC(=O)NCC(=O)N/N=C/c2cc(Br)cc(Br)c2O)c1,–,–,–,–,EC50 [6]: 0.486 µM (active); EC50 [7]: 1.66 µM (active)
CNCCc1c[nH]c2ccc(O)cc12,–,–,–,–,AC50 [5]: 39.8 µM (inconclusive)
